{"source": "PubChem BioAssay (NCI)", "test_in_all_cases": "DTP human tumour cell line panel, 48 h", "key": {"BT-549 breast": {"system": "BT-549 breast"}, "MALME-3M melanoma": {"system": "MALME-3M melanoma"}, "RPMI-8226 leukemia": {"system": "RPMI-8226 leukemia"}, "MCF7 breast": {"system": "MCF7 breast"}, "MOLT-4 leukemia": {"system": "MOLT-4 leukemia"}, "MDA-N": {"system": "MDA-N"}, "RXF 393 renal": {"system": "RXF 393 renal"}, "NCI-H226 lung": {"system": "NCI-H226 lung"}, "NCI-H23 lung": {"system": "NCI-H23 lung"}, "TK-10 renal": {"system": "TK-10 renal"}, "NCI/ADR-RES ovarian": {"system": "NCI/ADR-RES ovarian"}, "UACC-62 melanoma": {"system": "UACC-62 melanoma"}, "IGROV1 ovarian": {"system": "IGROV1 ovarian"}, "UO-31 renal": {"system": "UO-31 renal"}, "SR leukemia": {"system": "SR leukemia"}, "DU-145 prostate": {"system": "DU-145 prostate"}, "T-47D breast": {"system": "T-47D breast"}, "SF-295 CNS": {"system": "SF-295 CNS"}, "SNB-19 CNS": {"system": "SNB-19 CNS"}, "SW-620 colon": {"system": "SW-620 colon"}, "PC-3 prostate": {"system": "PC-3 prostate"}, "HCT-116 colon": {"system": "HCT-116 colon"}, "OVCAR-8 ovarian": {"system": "OVCAR-8 ovarian"}, "A498 renal": {"system": "A498 renal"}, "CAKI-1 renal": {"system": "CAKI-1 renal"}, "A549 NSCLC": {"system": "A549 NSCLC"}, "SK-MEL-28 melanoma": {"system": "SK-MEL-28 melanoma"}, "NCI-H522 lung": {"system": "NCI-H522 lung"}, "COLO 205 colon": {"system": "COLO 205 colon"}, "OVCAR-3 ovarian": {"system": "OVCAR-3 ovarian"}, "HOP-62 NSCLC": {"system": "HOP-62 NSCLC"}, "UACC-257 melanoma": {"system": "UACC-257 melanoma"}, "SF-268 CNS": {"system": "SF-268 CNS"}, "HL-60(TB) leukemia": {"system": "HL-60(TB) leukemia"}, "EKVX NSCLC": {"system": "EKVX NSCLC"}, "CCRF-CEM leukemia": {"system": "CCRF-CEM leukemia"}, "SN12C renal": {"system": "SN12C renal"}, "HT29 colon": {"system": "HT29 colon"}, "HS 578T breast": {"system": "HS 578T breast"}, "HOP-92 NSCLC": {"system": "HOP-92 NSCLC"}, "SNB-75 CNS": {"system": "SNB-75 CNS"}, "M14 melanoma": {"system": "M14 melanoma"}, "U251 CNS": {"system": "U251 CNS"}, "OVCAR-5 ovarian": {"system": "OVCAR-5 ovarian"}, "SK-OV-3 ovarian": {"system": "SK-OV-3 ovarian"}, "SK-MEL-5 melanoma": {"system": "SK-MEL-5 melanoma"}, "ACHN renal": {"system": "ACHN renal"}, "HCT-15 colon": {"system": "HCT-15 colon"}, "HCC-2998 colon": {"system": "HCC-2998 colon"}, "MDA-MB-231 breast": {"system": "MDA-MB-231 breast"}, "KM12 colon": {"system": "KM12 colon"}, "LOX IMVI melanoma": {"system": "LOX IMVI melanoma"}, "SK-MEL-2 melanoma": {"system": "SK-MEL-2 melanoma"}, "SF-539 CNS": {"system": "SF-539 CNS"}, "OVCAR-4 ovarian": {"system": "OVCAR-4 ovarian"}, "NCI-H460 lung": {"system": "NCI-H460 lung"}, "MDA-MB-435": {"system": "MDA-MB-435"}, "K-562 leukemia": {"system": "K-562 leukemia"}, "786-0 renal": {"system": "786-0 renal"}}, "note": "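Where inhibition never reached the appropriate level, the endpoint shown equals the highest concentration tested. Otherwise, values were interpolated linearly from a five-concentration, 48-hour dose response in 96-well plates. The concentration for full growth arrest is given as TGI.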"}
{"smiles": "CCOC(=O)c1cccc(NC(=O)CCl)c1", "values": [{"measurement": "TGI", "setting": "BT-549 breast", "result": 17.9, "unit": "µM"}, {"measurement": "TGI", "setting": "MALME-3M melanoma", "result": 18.5, "unit": "µM"}, {"measurement": "TGI", "setting": "RPMI-8226 leukemia", "result": 15.9, "unit": "µM"}, {"measurement": "TGI", "setting": "MCF7 breast", "result": 6.81, "unit": "µM"}, {"measurement": "TGI", "setting": "MOLT-4 leukemia", "result": 27.2, "unit": "µM"}, {"measurement": "TGI", "setting": "MDA-N", "result": 14.7, "unit": "µM"}, {"measurement": "TGI", "setting": "RXF 393 renal", "result": 9.9, "unit": "µM"}, {"measurement": "TGI", "setting": "NCI-H226 lung", "result": 26, "unit": "µM"}, {"measurement": "TGI", "setting": "NCI-H23 lung", "result": 13.1, "unit": "µM"}, {"measurement": "TGI", "setting": "TK-10 renal", "result": 15, "unit": "µM"}, {"measurement": "TGI", "setting": "NCI/ADR-RES ovarian", "result": 22.7, "unit": "µM"}, {"measurement": "TGI", "setting": "UACC-62 melanoma", "result": 6.85, "unit": "µM"}, {"measurement": "TGI", "setting": "IGROV1 ovarian", "result": 8.11, "unit": "µM"}, {"measurement": "TGI", "setting": "UO-31 renal", "result": 13.7, "unit": "µM"}, {"measurement": "TGI", "setting": "SR leukemia", "result": 7.46, "unit": "µM"}, {"measurement": "TGI", "setting": "DU-145 prostate", "result": 22.7, "unit": "µM"}, {"measurement": "TGI", "setting": "T-47D breast", "result": 10.1, "unit": "µM"}, {"measurement": "TGI", "setting": "SF-295 CNS", "result": 26.1, "unit": "µM"}, {"measurement": "TGI", "setting": "SNB-19 CNS", "result": "> 92.8", "unit": "µM"}, {"measurement": "TGI", "setting": "SW-620 colon", "result": 16.5, "unit": "µM"}, {"measurement": "TGI", "setting": "PC-3 prostate", "result": 18.1, "unit": "µM"}, {"measurement": "TGI", "setting": "HCT-116 colon", "result": 8.29, "unit": "µM"}, {"measurement": "TGI", "setting": "OVCAR-8 ovarian", "result": "> 30.1", "unit": "µM"}, {"measurement": "TGI", "setting": "A498 renal", "result": 29.2, "unit": "µM"}, {"measurement": "TGI", "setting": "CAKI-1 renal", "result": 3.42, "unit": "µM"}, {"measurement": "TGI", "setting": "A549 NSCLC", "result": 29.8, "unit": "µM"}, {"measurement": "TGI", "setting": "SK-MEL-28 melanoma", "result": 49.7, "unit": "µM"}, {"measurement": "TGI", "setting": "NCI-H522 lung", "result": 3.49, "unit": "µM"}, {"measurement": "TGI", "setting": "COLO 205 colon", "result": 23.5, "unit": "µM"}, {"measurement": "TGI", "setting": "OVCAR-3 ovarian", "result": 4.44, "unit": "µM"}, {"measurement": "TGI", "setting": "HOP-62 NSCLC", "result": 6.15, "unit": "µM"}, {"measurement": "TGI", "setting": "UACC-257 melanoma", "result": 14.1, "unit": "µM"}, {"measurement": "TGI", "setting": "SF-268 CNS", "result": 5.69, "unit": "µM"}, {"measurement": "TGI", "setting": "HL-60(TB) leukemia", "result": 13.2, "unit": "µM"}, {"measurement": "TGI", "setting": "EKVX NSCLC", "result": 8.9, "unit": "µM"}, {"measurement": "TGI", "setting": "CCRF-CEM leukemia", "result": 10.6, "unit": "µM"}, {"measurement": "TGI", "setting": "SN12C renal", "result": 4.6, "unit": "µM"}, {"measurement": "TGI", "setting": "HT29 colon", "result": 14.1, "unit": "µM"}, {"measurement": "TGI", "setting": "HS 578T breast", "result": 11, "unit": "µM"}, {"measurement": "TGI", "setting": "HOP-92 NSCLC", "result": 16.9, "unit": "µM"}, {"measurement": "TGI", "setting": "SNB-75 CNS", "result": 9.22, "unit": "µM"}, {"measurement": "TGI", "setting": "M14 melanoma", "result": 24.9, "unit": "µM"}, {"measurement": "TGI", "setting": "U251 CNS", "result": 2.95, "unit": "µM"}, {"measurement": "TGI", "setting": "OVCAR-5 ovarian", "result": 16.9, "unit": "µM"}, {"measurement": "TGI", "setting": "SK-OV-3 ovarian", "result": 15.3, "unit": "µM"}, {"measurement": "TGI", "setting": "SK-MEL-5 melanoma", "result": 3.69, "unit": "µM"}, {"measurement": "TGI", "setting": "ACHN renal", "result": 9.19, "unit": "µM"}, {"measurement": "TGI", "setting": "HCT-15 colon", "result": 12.4, "unit": "µM"}, {"measurement": "TGI", "setting": "HCC-2998 colon", "result": 7.93, "unit": "µM"}, {"measurement": "TGI", "setting": "MDA-MB-231 breast", "result": 14.5, "unit": "µM"}, {"measurement": "TGI", "setting": "KM12 colon", "result": 21.4, "unit": "µM"}, {"measurement": "TGI", "setting": "LOX IMVI melanoma", "result": 3.89, "unit": "µM"}, {"measurement": "TGI", "setting": "SK-MEL-2 melanoma", "result": 8.57, "unit": "µM"}, {"measurement": "TGI", "setting": "SF-539 CNS", "result": 5.78, "unit": "µM"}, {"measurement": "TGI", "setting": "OVCAR-4 ovarian", "result": 8.31, "unit": "µM"}, {"measurement": "TGI", "setting": "NCI-H460 lung", "result": 5.37, "unit": "µM"}, {"measurement": "TGI", "setting": "MDA-MB-435", "result": 7.41, "unit": "µM"}, {"measurement": "TGI", "setting": "K-562 leukemia", "result": 29, "unit": "µM"}, {"measurement": "TGI", "setting": "786-0 renal", "result": 4.02, "unit": "µM"}]}
